Data taken from ChEMBL document CHEMBL1126597, “Irreversible inactivation of macrophage and brain nitric oxide synthase by L-NG-methylarginine requires NADPH-dependent hydroxylation” (J Med Chem, 1993).

Target: T1, Nitric oxide synthase, inducible (Mus musculus) (UniProt P29477)
T1 sequence (whole entry): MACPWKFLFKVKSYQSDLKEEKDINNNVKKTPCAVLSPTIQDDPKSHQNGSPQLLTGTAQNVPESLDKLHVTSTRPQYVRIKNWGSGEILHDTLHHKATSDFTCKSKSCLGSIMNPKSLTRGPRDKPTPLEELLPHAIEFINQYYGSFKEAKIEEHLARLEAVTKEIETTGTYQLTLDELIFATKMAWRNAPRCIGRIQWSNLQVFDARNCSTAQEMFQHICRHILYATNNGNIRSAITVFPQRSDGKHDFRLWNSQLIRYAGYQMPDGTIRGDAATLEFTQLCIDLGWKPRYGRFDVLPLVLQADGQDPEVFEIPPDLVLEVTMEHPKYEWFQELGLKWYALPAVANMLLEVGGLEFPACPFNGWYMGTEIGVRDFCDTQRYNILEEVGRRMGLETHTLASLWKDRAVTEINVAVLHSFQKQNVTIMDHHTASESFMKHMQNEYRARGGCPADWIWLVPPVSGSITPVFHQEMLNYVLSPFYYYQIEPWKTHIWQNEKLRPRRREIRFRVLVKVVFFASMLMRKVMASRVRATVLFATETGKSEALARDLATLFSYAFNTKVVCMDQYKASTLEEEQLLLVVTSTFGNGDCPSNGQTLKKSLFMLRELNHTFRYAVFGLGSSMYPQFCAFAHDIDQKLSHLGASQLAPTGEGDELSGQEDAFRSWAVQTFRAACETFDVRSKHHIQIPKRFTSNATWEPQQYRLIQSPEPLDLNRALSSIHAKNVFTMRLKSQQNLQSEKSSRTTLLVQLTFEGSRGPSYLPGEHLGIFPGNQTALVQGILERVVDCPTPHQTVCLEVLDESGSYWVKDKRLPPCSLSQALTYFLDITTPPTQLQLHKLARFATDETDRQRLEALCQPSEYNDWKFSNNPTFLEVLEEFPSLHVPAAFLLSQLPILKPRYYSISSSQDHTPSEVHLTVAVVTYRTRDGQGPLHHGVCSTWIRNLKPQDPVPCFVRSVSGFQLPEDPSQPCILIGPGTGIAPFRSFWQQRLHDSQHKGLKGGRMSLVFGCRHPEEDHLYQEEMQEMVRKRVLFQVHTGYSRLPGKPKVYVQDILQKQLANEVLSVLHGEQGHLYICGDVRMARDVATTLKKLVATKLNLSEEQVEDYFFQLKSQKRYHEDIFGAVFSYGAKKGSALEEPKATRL
Test: Inhibitory against murine macrophage nitric oxide synthase (mNOS) at 10 uM

kinact [min⁻¹]	Compound
0.08	CNC(=N)NCCC[C@H](N)C(=O)O
0.1	CN(O)C(=N)NCCCC(N)C(=O)O (configuration not stated)
